Experimental data as given in patent US8940768B2, “Antifungal triazole derivatives” (Daewoong Pharmaceutical Co., Ltd., priority 2010, dated 2015).
≈ marks a conversion by molar mass, not a printed value.

Experiments:
Assay type in all cases: cell-based
Candida glabrata = test: in vitro antifungal activity (MIC80), Candida glabrata; details: Nakaseomyces glabratus, 24 h, read-out: Antifungal Activity (MIC80) C. grabrata
Procedure: (§1) The compounds of the present invention were evaluated for inhibitory activity against yeast molds including Candida albicans, Candida glabrata, Candida krusei, Candida tropicalis, Candida parapsilosis, and Cryptococcus neoformans, and filamentous fungi including Aspergillus fumigatus, Trichophyton mentagrophytes (obtained from KCTC (Korean Collection for Type Cultures), and Trichophyton rubrum (obtained from KCCM (Korean Culture Center of Microorganisms). All the strains, but Trichophyton mentagrophytes and Trichophyton rubrum, were purchased from the ATCC (American Type Culture Collection).
(§2) Of the strains used in this test, Candida albicans, Candida glabrata, Candida krusei, Candida tropicalis, Candida parapsilosis, Trichophyton mentagrophytes and Trichophyton rubrum were inoculated into sabouraud dextrose agars (Difco, BD-0109), Cryptococcus neoformans into a yeast mold agar (YM agar, Difco, 271210), and Aspergillus fumigatus into a malt extract agar (Difco, 211220), before incubation at 35° C. for two to ten days.
(§3) From the agars on which the yeast molds were grown, single colonies were picked up, and each was sufficiently suspended in 5 mL of already prepared, 0.85% sterile saline. After correction of the absorbance to 0.108 at 530 nm, each of the suspensions was diluted to a ratio of 1:50 in an RPMI (Roswell park memorial institute) 1640 medium and then to a ratio of 1:20 to prepare an inoculum having a cell density of from 1.0×10^3 to 5.0×10^3CFU/mL. The cell density was adjusted into […]˜5.0×10^4 CFU/mL for Aspergillus fumigates and 0.4×10^4˜5.0×10^4 CFU/mL for both Trichophyton mentagrophytes and Trichophyton rubrum.
(§4) The antifungal agent samples were prepared by diluting the active compounds in an RPMI 1640 medium to a serial density of from 0.0156 to 32 μg/mL. In this context, dimethylsulfoxide (DMSO) was used as an excipient at a final concentration of 1% (v/v). The serial dilutions were aliquoted at a volume of 0.1 mL and applied to 0.1 mL of the aliquots of each inoculum, followed by incubation.
(§5) With the naked eyes, an observation was made of all of the yeast molds, but Cryptococcus neoformans 24 hrs after the application, Cryptococcus neoformans and Aspergillus fumigatus 48 hrs after the application, and Trichophyton mentagrophytes and Trichophyton rubrum five days after the application to examine whether the fungi grew or not. In addition, Alamarblue™ as used to determine the concentrations of the compounds of the present invention at which the growth of the microorganisms was 80% inhibited compared to that of the negative control. All experiments were performed in duplicate for each of the test concentration groups.

Candida tropicalis = test: in vitro antifungal activity (MIC80), Candida tropicalis; details: 80% growth inhibition vs negative control, RPMI 1640, read 24 hrs after application, read-out: Antifungal Activity (MIC80) C. tropicalis
Procedure: as §1, §2, §3, §4, §5

Candida parapsilosis = test: in vitro antifungal activity (MIC80), Candida parapsilosis; details: Lodderomyces parapsilosis; 80% growth inhibition vs negative control; RPMI 1640; read 24 hrs after application; read-out: Antifungal Activity (MIC80) C. parapsilosis
Procedure: as §1, §2, §3, §4, §5

Trichophyton rubrum = test: in vitro antifungal activity (MIC80), Trichophyton rubrum; details: 120 h, 80% growth inhibition vs negative control, RPMI 1640, read five days after application
Procedure: as §1, §2, §3, §4, §5

Cryptococcus neoformans = test: in vitro antifungal activity (MIC80), Cryptococcus neoformans; details: 80% growth inhibition vs negative control, RPMI 1640, read 48 hrs after application
Procedure: as §1, §2, §3, §4, §5

Aspergillus fumigatus = test: in vitro antifungal activity (MIC80), Aspergillus fumigatus; details: 80% growth inhibition vs negative control, RPMI 1640, read 48 hrs after application
Procedure: as §1, §2, §3, §4, §5

Candida krusei = test: in vitro antifungal activity (MIC80), Candida krusei; details: Pichia kudriavzevii; 80% growth inhibition vs negative control; RPMI 1640; read 24 hrs after application; read-out: Antifungal Activity (MIC80) C. krusei
Procedure: as §1, §2, §3, §4, §5

[1] = test system: Trichophyton mentagrophytes; test: in vitro antifungal activity (MIC80), Trichophyton mentagrophytes; details: 120 h, 80% growth inhibition vs negative control, RPMI 1640, read five days after application
Procedure: as §1, §2, §3, §4, §5

Candida albicans = test: in vitro antifungal activity (MIC80), Candida albicans; details: 80% growth inhibition vs negative control, RPMI 1640, read 24 hrs after application, Table 1, read-out: Antifungal Activity (MIC80) C. albicans
Procedure: as §1, §2, §3, §4, §5

Structure (SMILES) | MIC80 (Candida glabrata) [µg/mL] | MIC80 (Candida tropicalis) [µg/mL] | MIC80 (Candida parapsilosis) [µg/mL] | MIC80 (Trichophyton rubrum) [µg/mL] | MIC80 (Cryptococcus neoformans) [µg/mL] | MIC80 (Aspergillus fumigatus) [µg/mL] | MIC80 (Candida krusei) [µg/mL] | MIC80 [1] [µg/mL] | MIC80 (Candida albicans) [µg/mL]
C[C@@H](N1CCC(Oc2ccc(F)cc2)CC1)[C@](O)(Cn1cncn1)c1ccc(F)cc1F [Example 1, (2R,3R)-2-(2,4-difluorophenyl)-3-(4-(4-fluorophenoxy)piperidin-1-yl)-1-(1H-1,2,4-triazol-1-yl)butan-2-ol] | 0.25 (≈ 0.56 µM) | 0.062 (≈ 0.139 µM) | ≤ 0.015 | ≤ 0.125 | ≤ 0.015 | ≤ 0.125 | 0.062 (≈ 0.139 µM) | ≤ 0.125 | ≤ 0.015
C[C@@H](NC1CCN(c2ncc(Br)cn2)CC1)[C@](O)(Cn1cncn1)c1ccc(F)cc1F [Example 153, (2R,3R)-3-((1-(5-bromopyrimidin-2-yl)piperidin-4-yl)amino)-2-(2,4-difluorophenyl)-1-(1H-1,2,4-triazol-1-yl)butan-2-ol] | 0.125 (≈ 0.246 µM) | 0.25 (≈ 0.492 µM) | ≤ 0.015 | ≤ 0.125 | ≤ 0.015 | 1 (≈ 1.97 µM) | 0.125 (≈ 0.246 µM) | 0.5 (≈ 0.984 µM) | ≤ 0.015
OC(Cn1cncn1)(Cn1cncn1)c1ccc(F)cc1F [Fluconazole, reference compound] | > 32 | > 32 | > 32 | 4 (≈ 13.1 µM) | 0.5 (≈ 1.63 µM) | > 128 | 4 (≈ 13.1 µM) | 16 (≈ 52.2 µM) | 4 (≈ 13.1 µM)
C[C@@H](c1ncncc1F)[C@](O)(Cn1cncn1)c1ccc(F)cc1F [Voriconazole, reference compound] | 2 (≈ 5.73 µM) | 0.25 (≈ 0.716 µM) | 0.5 (≈ 1.43 µM) | ≤ 0.125 | 0.25 (≈ 0.716 µM) | 0.25 (≈ 0.716 µM) | 0.5 (≈ 1.43 µM) | 0.125 (≈ 0.358 µM) | 0.031 (≈ 0.0887 µM)
C[C@@H](NC1CCN(c2ccc(Cl)cc2)CC1)[C@](O)(Cn1cncn1)c1ccc(F)cc1F [Example 128, (2R,3R)-3-((1-(4-chlorophenyl)piperidin-4-yl)amino)-2-(2,4-difluorophenyl)-1-(1H-1,2,4-triazol-1-yl)butan-2-ol] | 0.062 (≈ 0.134 µM) | 0.031 (≈ 0.0671 µM) | 0.031 (≈ 0.0671 µM) | ≤ 0.125 | ≤ 0.015 | 0.25 (≈ 0.541 µM) | ≤ 0.015 | 0.015 (≈ 0.0325 µM) | ≤ 0.015
C[C@@H](N1CCC(Oc2ncccn2)CC1)[C@](O)(Cn1cncn1)c1ccc(F)cc1F [Example 29, (2R,3R)-2-(2,4-difluorophenyl)-3-(4-(pyrimidin-2-yloxy)piperidin-1-yl)-1-(1H-1,2,4-triazol-1-yl)butan-2-ol] | 1 (≈ 2.32 µM) | 0.25 (≈ 0.581 µM) | 0.062 (≈ 0.144 µM) | ≤ 0.125 | ≤ 0.015 | 1 (≈ 2.32 µM) | 0.5 (≈ 1.16 µM) | 0.062 (≈ 0.144 µM) | ≤ 0.015
C[C@@H](N1CCC(Oc2ncc(Br)cn2)CC1)[C@](O)(Cn1cncn1)c1ccc(F)cc1F [Example 32, (2R,3R)-3-(4-((5-bromopyrimidin-2-yl)oxy)piperidin-1-yl)-2-(2,4-difluorophenyl)-1-(1H-1,2,4-triazol-1-yl)butan-2-ol] | 0.125 (≈ 0.245 µM) | ≤ 0.015 | ≤ 0.015 | 0.031 (≈ 0.0609 µM) | ≤ 0.015 | ≤ 0.125 | 0.125 (≈ 0.245 µM) | ≤ 0.125 | ≤ 0.015
C[C@@H](N1CCC(Nc2ccc(Cl)cn2)CC1)[C@](O)(Cn1cncn1)c1ccc(F)cc1F [Example 59, (2R,3R)-3-(4-((5-chloropyridin-2-yl)-amino)piperidin-1-yl)-2-(2,4-difluorophenyl)-1-(1H-1,2,4-triazol-1-yl)butan-2-ol] | 0.25 (≈ 0.54 µM) | 0.125 (≈ 0.27 µM) | ≤ 0.015 | ≤ 0.125 | ≤ 0.015 | 0.25 (≈ 0.54 µM) | 0.062 (≈ 0.134 µM) | ≤ 0.125 | ≤ 0.015
